Measured values reported in patent US20150297761A1, “PEPTIDIC STRUCTURES INCORPORATING AN AMINO ACID METAL COMPLEX AND APPLICATIONS IN MAGNETIC RESONANCE IMAGING” (THE GENERAL HOSPITAL CORPORATION, priority 2012, published 2015).

Tests used:
HSA = HSA (Homo sapiens, UniProt P02768); experiment: HSA binding by ultrafiltration and ICP-MS (Example 3); assay type: in vitro ADME; settings: 0.1 mM compound, 4.5% (w/v) HSA, 37° C.
Protocol: In order to measure HSA binding of the complexes, a 0.1 mM solution (determined by ICP-MS) of the corresponding Gd complex in 4.5% w/v HSA was prepared and pipetted into a Ultrafree-MC Microcentrifuge Filter (NMWL 5,000 Da, PLCC, Millipore). The mixture is incubated at 37° C. for 10 minutes and subsequently centrifuged at 12,000 rpm for 15 minutes. Binding is determined by measurement of Gd content in the filtrate by ICP-MS.

[1] = Relaxivity in the absence and presence of HSA (Example 3); assay type: physicochemical; settings: for r1 (20 MHz), absence of HSA / r1 (60 MHz), absence of HSA: absence of HSA (first value of cell); for r1 (20 MHz), presence of HSA / r1 (60 MHz), presence of HSA: presence of HSA (second value of cell)
Protocol: ^1H and ^13C NMR spectra were recorded on a Varian 500 NMR system equipped with a 5 mm broadband probe. Longitudinal relaxation times, T1, were measured by using the inversion recovery method on Bruker Minispecs. mq20 (20 MHz) and mq60 (60 MHz). Purification via HPLC of intermediates toward Fmoc-DOTAla was performed using method A: Injection of crude mixture onto preparative HPLC on a Rainin, Dynamax (column: 250 mm Kromasil C18) by using A: 0.1% TFA in water, B: 0.1% TFA in MeCN, flow-rate 15 mL/min, 1 over 23 minutes. HPLC purity analysis (both UV and MS detection) was carried out on an Agilent 1100 system (column: Phenomenex Luna, C18(2) 100/2 mm) with UV detection at 220, 254 and 280 nm by using a method B: A gradient of A(0.1% formic acid in water) to 95% B(0.1% formic acid in MeCN), flow-rate 0.8 mL/min, 1 over 15 minutes.

[2] = Relaxivity of DOTAlaP derivatives (Example 6); assay type: physicochemical
Protocol: Relaxivity. Longitudinal relaxation times T1, were measured on Bruker Minispecs mq20 (20 MHz) and mq60 (60 MHz) using an inversion recovery method with 10 inversion time values ranging from 0.05×T1 to 5×Ti. Relaxivity was calculated from a linear plot of 3 different concentrations ranging from 0.25 to 1.0 mM versus the corresponding inverse relaxation times. The temperature was adjusted to 37° C.

[3] = 17O NMR of Gd complexes for determination of τM (Example 6); assay type: physicochemical; settings: pH 7.4, 10 mM PBS; for ^310 TM (ns) / ^310kex × 10^6 (s^−1): 310 K
Protocol: ^17O NMR of Gd complexes for Determination of TM. ^17O NMR measurements of solutions were performed at 11.7 T on 350 μL samples contained in 5 mm standard NMR tubes on a Varian spectrometer. Temperature was regulated by air flow controlled by a Varian VT unit. ^17O transverse relaxation times of a >4 mM solution of Gd(3) and Gd(5a) (pH 7.4, 10 mM PBS buffer) were measured using a CPMG sequence. The concentration of the sample was determined by ICP-MS. Reduced relaxation rates, 1/T2r were calculated from the difference of 1/T2 between the sample and the water blank, and then divided by the mole fraction of coordinated water. The temperature dependence of 1/T2r was fit to a 4-parameter model as previously described. The Gd—O hyperfine-coupling constant, A/h, was assumed to be 3.8×10^6 rad/s, the Gd—O distance was assumed to be 3.1 Å.

[4] = Ligand challenge, equilibrium constant Kcomp of MS-325 vs. L; assay type: physicochemical; settings: calculated from literature thermodynamic data
Protocol: (§1) Equilibration of each solution was monitored by LC-MS. Relative distributions of [Gd(CyPic3A)(H2O)2]^− and CyPic3A were determined by integrating the corresponding absorbance traces at 280 nm. […] Kcomp values determined between [Gd(DTPA)(H2O)]^2− and various ligands were determined from conditional formation constants (Kcond)^4 values taken from the literature.^6-16 Direct comparisons were only made between Kcond values determined under identical conditions.

[5] = Ligand challenge, equilibrium constant Kcomp of [Gd(DTPA)(H2O)]2− vs. L; assay type: physicochemical; settings: calculated from literature thermodynamic data
Protocol: As a means of assessing thermodynamic stability relative to other Gd(III)-complexes, [Gd(CyPic3A)(H2O)2]^− was challenged with DTPA in pH 7.4 25 mM Tris buffer. […] From this information it was possible to deduce equilibrium constants (Kcomp) for the competition reaction described in Equation 5,^31 where L=DTPA and L′=challenging chelator.
as §1

[6] = Kinetic inertness: Zn(II) transmetallation in phosphate buffer, followed by 1/T1; assay type: physicochemical; settings: Zn(II) challenge of the Gd(III) complex of L; this work
Text: Kinetic inertness was also taken into account in the evaluation of potential probes. In this regard, [Gd(CyPic3A)(H2O)2]^− was challenged with 1 equiv. [ZnPO4]^− as a slurry in pH 7.0 phosphate buffer at 310 K (see below). Several clinically utilized Gd(III) complexes have been benchmarked relative to one another in this manner.^37 As Gd(III) replaced by Zn(II) precipitates from the solution as GdPO4, the relaxation rate 1/T1 decreases. In this method, the time required to reach 80% of the initial 1/T1 value was utilized as an index of kinetic inertness.
Modified conditions of Muller and co-workers were used for this experiment.^11,12 Solutions containing 2.5 mM [Gd(CyPic3A)(H2O)2]^− and 2.5 mM Zn(OTf)2 were combined in pH 7.0 phosphate buffer (50 mM) and placed in an incubator shaker set to 310 K. Progress of the transchelation was monitored via the decrease in 1/T1 with time. Prior to measurement, aliquots were placed in small glass inserts and centrifuged to bring all insoluble material to the bottom so as not to interfere with the measurement.

HSA, sequence (P02768 25-609): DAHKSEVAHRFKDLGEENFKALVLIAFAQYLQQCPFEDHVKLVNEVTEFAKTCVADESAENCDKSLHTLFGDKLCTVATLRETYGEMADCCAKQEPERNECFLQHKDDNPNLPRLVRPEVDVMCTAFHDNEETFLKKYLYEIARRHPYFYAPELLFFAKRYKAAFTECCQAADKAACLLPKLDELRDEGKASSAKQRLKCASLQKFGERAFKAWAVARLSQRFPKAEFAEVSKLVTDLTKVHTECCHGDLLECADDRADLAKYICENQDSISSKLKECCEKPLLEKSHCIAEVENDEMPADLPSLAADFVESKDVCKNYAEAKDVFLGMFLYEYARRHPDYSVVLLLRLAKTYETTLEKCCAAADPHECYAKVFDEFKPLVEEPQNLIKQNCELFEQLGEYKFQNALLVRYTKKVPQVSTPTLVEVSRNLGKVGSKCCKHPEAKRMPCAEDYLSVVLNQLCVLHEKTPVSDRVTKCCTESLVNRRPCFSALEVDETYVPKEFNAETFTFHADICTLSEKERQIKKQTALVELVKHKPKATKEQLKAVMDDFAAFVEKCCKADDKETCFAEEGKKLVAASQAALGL

Molecule	% HSA binding (HSA) [%]	r1 (20 MHz), absence of HSA [1] [mM⁻¹ s⁻¹]	r1 (20 MHz), presence of HSA [1] [mM⁻¹ s⁻¹]	r1 (60 MHz), absence of HSA [1] [mM⁻¹ s⁻¹]	r1 (60 MHz), presence of HSA [1] [mM⁻¹ s⁻¹]	also measured
2,2′,2″-(10-(3-(((1-Carboxy-2-(4-hydroxy-3,5-diiodophenyl)ethyl)-amino)-2-(2-(4-isobutylphenyl)propanamido)-3-oxopropyl)-1,4,7,10-tetraazacyclododecane-1,4,7-triyl)triacetic Acid [Gd (8)]	90	7.1	31.8	6.7	21.1	
NC(CN1CCN(CC(=O)O)CCN(CP(=O)(O)O)CCN(CC(=O)O)CC1)C(=O)O (stereo not shown) [Gd(3), 2,2′-(4-(2-amino-2-carboxyethyl)-10-(phosphonomethyl)-1,4,7,10-tetra-azacyclododecane-1,7-diyl)diacetic acid]						r1 (20 MHz, 37° C., mM^−1s^−1) [2]: 6.4 mM⁻¹ s⁻¹; r1 (60 MHz, 37° C., mM^−1s^−1) [2]: 6.1 mM⁻¹ s⁻¹; ^310 TM (ns) [3]: 8.1 ± 0.25 ns; ^310kex × 10^6 (s^−1) [3]: 125 ± 4 × 10^6 s^−1; ΔH^‡ [3]: 13.5 ± 1.12 kJ/mol
C[C@@H](C(=O)NC(CN1CCN(CC(=O)O)CCN(CC(=O)O)CCN(CC(=O)O)CC1)C(=O)N[C@@H](Cc1cc(I)c(O)c(I)c1)C(=O)O)c1ccccc1 (stereo partly drawn) [Gd (19), 2,2′,2″-(10-(3-(((S)-1-carboxy-2-(4-hydroxy-3,5-diiodophenyl)ethyl)amino)-3-oxo-2-((R)-2-phenylpropanamido)propyl)-1,4,7,10-tetraazacyclododecane-1,4,7-triyl)triacetic acid]	69	6.0	30.7	6.4	21.8	
C[C@@H](NC(=O)C(CN1CCN(CC(=O)O)CCN(CC(=O)O)CCN(CC(=O)O)CC1)NC(=O)C(N)Cc1cc(I)c(O)c(I)c1)c1ccccc1 (stereo partly drawn) [Gd (13-R), 2,2′,2″-(10-(2-(2-amino-3-(4-hydroxy-3,5-diiodophenyl)propanamido)-3-oxo-3-(((R)-1-phenylethyl)amino)propyl)-1,4,7,10-tetraazacyclododecane-1,4,7-triyl)triacetic acid]	36	6.6	18.4	6.4	11.4	
C[C@@H](NC(=O)C(CN1CCN(CC(=O)O)CCN(CC(=O)O)CCN(CC(=O)O)CC1)NC(=O)C(N)Cc1cc(I)c(O)c(I)c1)c1ccccc1 (stereo partly drawn) [Gd (13-S), 2,2′,2″-(10-(2-(2-amino-3-(4-hydroxy-3,5-diiodophenyl)propanamido)-3-oxo-3-(((R)-1-phenylethyl)amino)propyl)-1,4,7,10-tetraazacyclododecane-1,4,7-triyl)triacetic acid]	39	7.1	18.5	6.1	10.9	
2,2′-(4-(2-carboxy-2-(2-(4-isobutylphenyl)propanamido)ethyl)-10-(phosphonomethyl)-1,4,7,10-tetraazacyclododecane-1,7-diyl)diacetic acid [Gd(5a)]						r1 (20 MHz, 37° C., mM^−1s^−1) [2]: 5.4 mM⁻¹ s⁻¹; r1 (60 MHz, 37° C., mM^−1s^−1) [2]: 4.1 mM⁻¹ s⁻¹; ^310 TM (ns) [3]: 6.36 ± 0.09 ns; ^310kex × 10^6 (s^−1) [3]: 158 ± 3 × 10^6 s^−1; ΔH^‡ [3]: 22.98 ± 1.76 kJ/mol
O=C(O)CN(CCN(CC(=O)O)CC(=O)O)CCN(CC(=O)O)CC(=O)O [DTPA]						Kcomp MS-325 vs. L pH 4 ([4]; pH 4): 0.58^5; Kcomp MS-325 vs. L pH 7.4 ([4]; pH 7.4): 0.35^5; Kcomp [Gd(DTPA)(H2O)]^2- vs. L pH 4 ([5]; pH 4): 1; Kcomp, [Gd(DTPA)(H2O)]^2- vs. L pH 7.4 ([5]; pH 7.4): 1; Time to 80% r1 [6]: 383 min
COC(=O)CNC(=O)C(CN1CCN(CC(=O)O)CCN(CC(=O)O)CCN(CC(=O)O)CC1)NC(=O)C(N)Cc1cc(I)c(O)c(I)c1 (stereo not shown) [Gd (7), 2,2′,2″-(10-(2-(2-amino-3-(4-hydroxy-3,5-diiodophenyl)propanamido)-3-((2-methoxy-2-oxoethyl)amino)-3-oxopropyl)-1,4,7,10-tetraazacyclododecane-1,4,7-triyl)triacetic acid]	6	4.7	7.05	3.9	6.9	
